{"source": "patent US7094561B2", "about": "“Method of monitoring the menstrual cycle and/or pregnancy in a female” (University of Guelph, priority 2000, dated 2006)", "key": {"[1]": {"system": "high endothelial venules (HEV) of peripheral lymph nodes (PLN)", "assay": "Adhesion under shear of human PBL to PLN HEV in frozen sections from hormone-treated ovariectomized mice", "type": "in vivo, mouse", "conditions": "for L-selectin-dependent and α4 integrin-dependent lymphocyte adhesion to endothelium of secondary lymphoid tissues, compared to pregnancy: hormone-treated Ovx mice versus pregnant mice, shear flow", "from_the_text": "(§1) C57BI/6J (Jackson Laboratory, Bar Harbor, Me.) and Balb/c (Taconic, Germantown, N.Y.) mice, aged 7–8 wk were studied. Some females were used for timed matings with the morning of the copulation plug designated gd 0. Other females (n=34) were surgically ovariectomized under Avertin anaesthesia (24). Females were rested 6 days and then received daily subcutaneous injections of either hormone dissolved in sesame oil or sesame oil alone between 9.00–11.00 a.m. as indicated in FIG. 2.^81-84 Some of the Ovx hormone-treated mice also had 10 μl sterile sesame oil injected into a uterine horn to induce decidualization 48 h prior to euthanasia. Ovx mice were euthanized 24 hours after receiving their last injection and vaginal smears were collected and stained with Wright-Giemsa to confirm treatment success. Non-pregnant (NP) controls were virgin females who had never been paired with males. All procedures were performed under appropriate animal utilization protocols. The following samples were collected from each mouse and embedded in OCT (Miles Laboratories) for cryosectioning: i) a pool of 10–12 PLN from subcutaneous and intermuscular sites; ii) a pool of 10–12 intestinal PP; iii) the entire pancreas; and iv) the uterus. For some experiments, the median iliac lymph nodes that drain the pelvic organs, including the uterus, were also dissected. Non-decidualized uteri were trimmed at the ovarian and cervical ends, then incised longitudinally along one side on an axis midway between the mesometrial and anti-mesometrial aspects. The mesometrium (the mesentery suspending the uterus, also known as the broad ligament) was not removed and served as a positional landmark during analyses. For embedding, samples were oriented to produce full thickness longitudinal sections that included both antimesometrial and mesometrial sides. Uteri from gd 3 were flushed for blastocysts to confirm pregnancy. The cell suspensions evaluated for adhesive interactions with endothelium were human peripheral blood lymphocytes (PBL) isolated from random (female and male) normal donor buffy coat leukocyte concentrates (American Red Cross, Rochester, N.Y.);^85,68 and TK-1 cells (an alpha integrin^high, L-selectin^low mouse T lymphoma cell line).^85 In selected experiments, human PBL were cultured 6 hr at 37° C. or 40° C. before being applied to tissue sections, as previously described^12. In all assays, some cell aliquots were incubated with function blocking mAb specific for human L-selectin (DREG-56, American Type Cell Collection [ATCC], Manassas, Va., 10 μg/ml) or human alpha4 integrin (HP2/1, Coulter Immunology, Hialeah, Fla., 10 μg/ml). To identify adherent human NK cells, PBL aliquots were pre-labeled with anti-CD56 mAb (NKG1, Coulter Immunology, diluted 1:100) followed by rabbit anti-mouse Ig-rhodamine isothiocynate (RITC) Ab as described previously (10;29). Control aliquots were treated with the secondary reagent alone. […] Following removal of non adherent cells, glutaraldehyde-fixed specimens were stained with 0.5% toluidine blue and adhesion was scored on 300–500 HEV/PLN or PP specimen or equivalent numbers of small vessels in pancreatic tissue. When CD56-pre-labeled cells were used, fluorescent cells were quantified in 10 high power fields (HPF; one HPF=5 mm^2) at 200× magnification using an Olympus BH2/RFL fluorescence microscope (Olympus Optical, Tokyo, Japan) (10;29). […]"}, "pancreas endothelium": {"system": "pancreas endothelium", "assay": "Adhesion of PBL or TK-1 cells to pancreas endothelium from hormone-treated ovariectomized mice", "type": "in vivo, mouse", "conditions": "tissue from hormone-treated Ovx mice", "from_the_text": "C57BI/6J (Jackson Laboratory, Bar Harbor, Me.) and Balb/c (Taconic, Germantown, N.Y.) mice, aged 7–8 wk were studied. Some females were used for timed matings with the morning of the copulation plug designated gd 0. Other females (n=34) were surgically ovariectomized under Avertin anaesthesia (24). Females were rested 6 days and then received daily subcutaneous injections of either hormone dissolved in sesame oil or sesame oil alone between 9.00–11.00 a.m. as indicated in FIG. 2.^81-84 Some of the Ovx hormone-treated mice also had 10 μl sterile sesame oil injected into a uterine horn to induce decidualization 48 h prior to euthanasia. […]\nThe cell suspensions evaluated for adhesive interactions with endothelium were human peripheral blood lymphocytes (PBL) isolated from random (female and male) normal donor buffy coat leukocyte concentrates (American Red Cross, Rochester, N.Y.);^85,68 and TK-1 cells (an alpha integrin^high, L-selectin^low mouse T lymphoma cell line).^85 In selected experiments, human PBL were cultured 6 hr at 37° C. or 40° C. before being applied to tissue sections, as previously described^12. […] Following removal of non adherent cells, glutaraldehyde-fixed specimens were stained with 0.5% toluidine blue and adhesion was scored on 300–500 HEV/PLN or PP specimen or equivalent numbers of small vessels in pancreatic tissue. […]"}, "uterine tissue": {"system": "uterine tissue", "assay": "Adhesion of CD56-labeled human PBL to uterine tissue from hormone-treated ovariectomized mice", "type": "in vivo, mouse", "conditions": "for adhesion of CD56bright human lymphocytes to uterine tissue: uteri from Ovx mice treated with hormone, versus placebo-treated Ovx or virgin", "from_the_text": "as §1, with “Uteri from gd 3 were flushed for blastocysts to confirm pregnancy.” left out, “described^12.” for “described^12. In all assays, some cell aliquots were incubated with function blocking mAb specific for human L-selectin (DREG-56, American Type Cell Collection [ATCC], Manassas, Va., 10 μg/ml) or human alpha4 integrin (HP2/1, Coulter Immunology, Hialeah, Fla., 10 μg/ml). To identify adherent human NK cells, PBL aliquots were pre-labeled with anti-CD56 mAb (NKG1, Coulter Immunology, diluted 1:100) followed by rabbit anti-mouse Ig-rhodamine isothiocynate (RITC) Ab as described previously (10;29). Control aliquots were treated with the secondary reagent alone.”"}, "[2]": {"system": "high endothelial venules (HEV) of Peyer's Patches (PP)", "assay": "Adhesion under shear of TK-1 cells to Peyer's Patch HEV from hormone-treated ovariectomized mice", "type": "in vivo, mouse", "conditions": "tissue from Ovx mice treated with hormone, versus placebo or virgin controls", "from_the_text": "C57BI/6J (Jackson Laboratory, Bar Harbor, Me.) and Balb/c (Taconic, Germantown, N.Y.) mice, aged 7–8 wk were studied. Some females were used for timed matings with the morning of the copulation plug designated gd 0. Other females (n=34) were surgically ovariectomized under Avertin anaesthesia (24). Females were rested 6 days and then received daily subcutaneous injections of either hormone dissolved in sesame oil or sesame oil alone between 9.00–11.00 a.m. as indicated in FIG. 2.^81-84 Some of the Ovx hormone-treated mice also had 10 μl sterile sesame oil injected into a uterine horn to induce decidualization 48 h prior to euthanasia. […] The cell suspensions evaluated for adhesive interactions with endothelium were human peripheral blood lymphocytes (PBL) isolated from random (female and male) normal donor buffy coat leukocyte concentrates (American Red Cross, Rochester, N.Y.);^85,68 and TK-1 cells (an alpha integrin^high, L-selectin^low mouse T lymphoma cell line).^85 In selected experiments, human PBL were cultured 6 hr at 37° C. or 40° C. before being applied to tissue sections, as previously described^12. […] Following removal of non adherent cells, glutaraldehyde-fixed specimens were stained with 0.5% toluidine blue and adhesion was scored on 300–500 HEV/PLN or PP specimen or equivalent numbers of small vessels in pancreatic tissue. […]"}, "human lymphocytes": {"system": "human lymphocytes", "assay": "Effect of blood collection anti-coagulant on adhesion of human lymphocytes to LN from pregnant mice", "type": "cell-based", "conditions": "blood collected into the anti-coagulant", "method": "Male and female subjects of legal age and in good health were recruited to donate up to 30 ml of blood, using venipuncture into evacuated, sterile blood collection tubes. All subjects were informed about the risks of participation in this study and signed approved informed consent forms. The blood was layered onto an equal volume of Histopaque 1.077 (Sigma) and centrifuged at 400×g for 30 min at RT according to manufacturers instructions. The cells at the interface were collected, washed thrice and counted.\nThe effects of anti-coagulants on adhesive properties of isolated PBL were assessed. Ten ml of blood was collected by venipuncture (40 ml collected per subject) into sterile evacuated tubes containing either Acid Citrate Dextrose (ACD), EDTA, Sodium Citrate, or heparin. Lymphocytes were isolated as described above and applied to sections of LN from pregnant mice. The sections were assessed for lymphocyte adhesion by microscopy."}, "[3]": {"system": "uterine artery and decidua", "conditions": "alymphoid mice, daily 100–1000 IU/6 days; cited from earlier work"}}, "data": [{"molecule": "C[C@]12CC[C@@H]3c4ccc(O)cc4CC[C@H]3[C@@H]1CC[C@@H]2O", "note": "[E2, 17-beta estradiol]", "values": [{"measurement": "L-selectin-dependent and α4 integrin-dependent lymphocyte adhesion to endothelium of secondary lymphoid tissues, compared to pregnancy", "setting": "[1]", "value": "fully mimicked the functional gains in adhesion promoted by pregnancy"}, {"measurement": "L-selectin-dependent and α4 integrin-dependent lymphocyte adhesion to endothelium of secondary lymphoid tissues, compared to pregnancy", "setting": "[1]; listed as estrogen", "value": "equivalent to pregnancy"}, {"measurement": "adhesion of PBL or TK1 cells to pancreas", "setting": "pancreas endothelium", "value": "no effect"}, {"measurement": "adhesion of PBL or TK1 cells to pancreas", "setting": "pancreas endothelium; listed as estrogen", "value": "no increase"}, {"measurement": "adhesion of CD56bright human lymphocytes to uterine tissue", "setting": "uterine tissue", "value": "equivalent functional changes"}, {"measurement": "percentage of CD56bright cells among lymphocytes adhering to uterine tissue (enrichment)", "setting": "uterine tissue; uterine tissue from mouse receiving hormone therapy, starting preparation 2–3% CD56bright", "value": 70, "unit": "%"}]}, {"molecule": "CC(=O)[C@H]1CC[C@H]2[C@@H]3CCC4=CC(=O)CC[C@]4(C)[C@H]3CC[C@]12C", "note": "[P4, progesterone]", "values": [{"measurement": "L-selectin-dependent and α4 integrin-dependent lymphocyte adhesion to endothelium of secondary lymphoid tissues, compared to pregnancy", "setting": "[1]", "value": "fully mimicked the functional gains in adhesion promoted by pregnancy"}, {"measurement": "L-selectin-dependent and α4 integrin-dependent lymphocyte adhesion to endothelium of secondary lymphoid tissues, compared to pregnancy", "setting": "[1]; listed as progesterone", "value": "equivalent to pregnancy"}, {"measurement": "L-selectin-dependent adhesion of human PBL to PLN HEV", "setting": "[1]; tissue from Ovx mice treated with hormone, versus placebo (oil) or virgin controls", "value": "enhanced L-selectin-dependent binding"}, {"measurement": "alpha4 integrin/MAdCAM-1-dependent TK-1 cell adhesion to PP HEV", "setting": "[2]", "value": "enhanced, progesterone-dependent, and α4 integrin-dependent, binding"}, {"measurement": "adhesion of CD56bright human lymphocytes to uterine tissue", "setting": "uterine tissue", "value": "equivalent functional changes"}, {"measurement": "adhesion of CD56bright human lymphocytes to uterine tissue", "setting": "uterine tissue; listed as progesterone", "value": "promoted"}]}, {"molecule": "O=C([O-])CC(O)(CC(=O)[O-])C(=O)[O-].[Na+].[Na+].[Na+]", "note": "[sodium citrate]", "values": [{"measurement": "adhesion of isolated human lymphocytes to LN from pregnant mice", "setting": "human lymphocytes", "value": "did not interfere with adhesion"}]}, {"molecule": "Tumor necrosis factor-alpha", "values": [{"measurement": "uterine artery modification and decidua", "setting": "[3]", "value": "lacked these effects"}]}, {"molecule": "recombinant mulFN-γ: recombinant murine interferon-gamma (protein, UniProt P01580 23-155, looked up) Interferon gamma: HGTVIESLESLNNYFNSSGIDVEEKSLFLDIWRNWQKDGDMKILQSQIISFYLRLFEVLKDNQAISNNISVIESHLITTFFSNSKAKKDAFMSIAKFEVNNPQVQRQAFNELIRVVHQLLPESSLRKRKRSRC", "values": [{"measurement": "uterine artery modification and decidua", "setting": "[3]", "value": "promoted full uterine artery modification and normalized deciduas"}]}]}
